Data on one molecule can be found in patent US20160228444A1, “NUCLEOSIDE ANALOGS AND USES THEREOF” (Ramot at Tel-Aviv University Ltd., priority 2015, published 2016).

One series relates to U251 glioblastoma cells. The series is described as follows: ROS production (DCF-DA, flow cytometry). In kind it is cell-based, human. The following applies: 5-6 h treatment, FIG. 1D. The procedure:
(§1) ROS were measured in live cells by monitoring the oxidation of DCF-DA (a cell-permeable probe), which undergoes deacetylation by cellular esterases and fluoresces upon oxidation by ROS. U251 MG (2×10^5 cells/six-well plates), astrocytes or H9C2 (5×10^5 cells/six-well plates) were treated as specified, incubated with […] DCF-DA for 30 min at 37° C., washed with PBS and analyzed (10^4 cells) by flow cytometry using a 488 nm excitation beam (Calibur cytometer, Becton Dickinson). The percentage of cells stained positively for DCF was determined with CellQuest software (BD Biosciences, San Jose, Calif., USA).
(§2) To gain insights into the mechanism of cell-type specific effects, ROS production in cancer cells and in non-cancer cells after treatment for 5-6 h with AN446, Dox and AN446+Dox, were assessed by staining the cells with the membrane-permeable fluorescent dye DCF-DA.
(A flow cytometer gives signals particle by particle.)

In another series the test system is H9C2 cells. Briefly: ROS production (DCF-DA, flow cytometry). The format is cell-based, rat. The following applies: FIG. 1D. As to the method:
as §1, §2

Another series concerns astrocytes. The series is described as follows: ROS production (DCF-DA, flow cytometry). The format is cell-based, rat. The following applies: FIG. 1D. As to the method:
as §1, §2

The subject of another series is VEGF. Briefly: VEGF immunohistochemistry in tumor and heart of xenograft mice. The following applies: FIG. 4F. In kind it is in vivo. The procedure:
The pro-angiogenic factors basic fibroblast growth factor (bFGF) and vascular endothelial growth factor (VEGF) are potent angiogenic stimulators. The expression of bFGF in the tumor and in the heart was evaluated by Western blot and qRT-PCR analyses and expression of VEGF by IHC.

The test system of the next series is HO-1. The series is described as follows: HO-1 protein and mRNA in tumor and heart of xenograft mice (Western blot, qRT-PCR). The format is in vivo. The following applies: heart. The procedure: Tumors and hearts of the mice were rapidly removed, frozen on dry ice and kept at −70° C. Tissue was then homogenized and RNA and proteins extracted using the NucleoSpin® RNA/Protein kit according to the manufacturer's protocol (Macherey-Nagel, GmbH & Co KG).
Total RNA ([…]) was primed by oligo dT and reverse-transcribed by Verso cDNA kit according to the manufacturer's protocol (Thermo Scientific). Analyses of qPCR were performed with Kapa Sybr® Fast (Kapa Biosystems) on a Step One Plus thermocycler (Applied Biosystems). The comparative threshold method was used to calculate the relative gene expression. Values were normalized against glyceraldehyde 3-phosphate dehydrogenase (GAPDH). Expression of the GAPDH mRNA in each individual sample was used to normalize the dataset. The sequences of the primers were as follows: […]
Protein levels in the samples were determined with the BCA protein assay kit (Pierce). The samples were subjected to Western blot analyses. The expression of proteins was visualized using their specified primary antibodies followed by the secondary IgG IRDye® 680DX antibody. Each detected band was quantified using the Odyssey Infrared Imaging System (LI-COR Biosciences) and normalized to the level of actin. The fold increase of a specific protein was determined by the ratio of the band intensity obtained from treated and untreated samples.
The effect of the drugs on the expression of genes associated with cell survival and death was examined by following changes in transcription and protein expression in tissue samples taken from the mice with glioblastoma xenografts. Heme oxygenase (HO-1) is known to play a protective role in the heart, whereas, in many cancers it is expressed and promotes growth and survival of neoplastic cells.
Background: Immunoblotting shows a protein as a band on a membrane.

The test system of another series is TNF-α. Briefly: Serum TNF-α in U251 xenograft mice (ELISA). In kind it is in vivo. The following applies: co-administration with doxorubicin, FIG. 8C. As to the method:
AN446 was tested in vivo using a xenograft of glioblastoma (U251 cells) in mice.
Background: In an ELISA, binding on a coated surface is turned into a signal by an enzyme label.

In series [1] the test system is TLR4. Briefly: TLR4 gene expression in MDA-MB-231 cells (qRT-PCR). The format is cell-based, human. The following applies: FIG. 7C. The procedure:
(§3) The effect of AN446 on inflammation-associated pathways was evaluated in the monocytic THP1 cell line and in the MDA-MB-231 breast carcinoma cell line. Supernatants of treated THP1 cells were collected and IL-6, IL-10 and TNF-α concentrations were quantified by ELISA (R&D systems). TLR4 expression in THP1 cells was assessed using fluorescent anti-TLR4 antibodies and FACS analysis. In addition, gene expression for MCP-1, TNF-α and TLR4 in MDA-MB-231 was evaluated by qRT-PCT, following treatment with AN446 and/or paclitaxel.

The subject of another series is IL-10. The series is described as follows: IL-10 in supernatant of LPS-treated THP1 cells (ELISA). In kind it is cell-based. The following applies: 1 μg/ml LPS, FIG. 7B. The procedure: as §3
For series [2], the system named is HDACs of classes I and II. Briefly: HDAC activity in intact cells (Fluor de Lys kit). The format is cell-based, human. The following applies: both U251 and Daudi cells, 2 h, FIG. 1B. As to the method: U251 or Daudi cells seeded in 96-well plates (10^4 cells/well, in quadruplicates) in growth medium for 24 h were then treated as indicated for 2 h in the presence of the HDAC substrate (Fluor de Lys™). The reaction was terminated by the addition of the Fluor de Lys™ developer (Biomol Research Labs) and […] trichostatin A (TSA). All of the above reagents were included in a kit for measuring activities of HDACs of classes I and II (AK-503, Biomol Research Labs). The percentage inhibition was calculated from the ratio of the fluorescence (measured at 355 nm excitation and at 460 nm emission) in the drug treated compared with the untreated control culture.

The subject of series [3] is acetylated H3 histone in U251 glioblastoma cells. Briefly: Histone H3 acetylation (Western blot), 24 hours. The following applies: FIG. 12. In kind it is cell-based, human. The procedure:
The effects of the abovementioned HDAC inhibitors on histone acetylation were also compared. U251 and H9C2 cells were treated with the HDAC inhibitors for 24 hours (according to procedures described hereinabove with respect to FIGS. 9 and 10), and then subjected to Western blot analysis.

The subject of series [4] is U251 human glioblastoma xenograft. Briefly: Glioblastoma xenograft model (survival, body weight, tumor volume, tumor weight, Ki-67). The following applies: for tumor volume of vehicle-treated group relative to treated group: from day 11, FIG. 3C.
Description: Xenograft of glioblastoma: 8- to 10-week-old male Hsd athymic FOXN (Harlan, Jerusalem, Israel) were inoculated sc in the flanks with 5×10^6 U251 cells. Tumor length (L) and width (W) were measured with a caliper twice weekly. Tumor volumes were calculated according to the formula: (L×W2)/2. When the tumor was established (volume of 50-100 mm^3) the mice were randomly divided into six groups treated with: vehicle control (saline); ip Dox 4 mg/kg once weekly; po AN446 25 mg/kg thrice a week; po AN7 50 mg/kg thrice a week; combination of AN446+Dox (4 mg/kg ip Dox once a week and 25 mg/kg po AN446 thrice a week); AN7+Dox (4 mg/kg ip Dox once a week and 50 mg/kg po AN7 thrice weekly). Untreated, non-bearing tumor naive mice were maintained under the same conditions. The experiment was terminated after 25 treatment days, the mice were sacrificed under CO2 and their tumors and hearts were removed, weighed and divided into parts dedicated for immunohistochemistry (IHC) and the rest were frozen (−80° C.) for Western blot and Quantitative PCR (qRT-PCR) analyses.
Inactivation of avidin-biotin nonspecific binding was prevented by a blocking kit, according to the manufacturer's protocol (Vector Laboratories). […] The secondary antibody was biotin conjugated goat anti-rabbit or anti-mouse IgG. Slides were then stained with the ABC peroxidase system, developed with diaminobenzidine (DAB) (Vector Laboratories) and counterstained with hematoxylin (Bio-Optica, Milano, Italy). The slides were examined using an Olympus BX 52 light microscope, and images were taken with an Olympus DP50 digital camera system.
Mice were implanted subcutaneously with U251 cells and when the tumors reached 50-100 mm^3 treatments were initiated. Survival was evaluated by the Kaplan-Meier end-product analysis, where treatment failure (the experimental end points) was a loss of ˜20% body weight, or a tumor volume of >1 cm^3.
Series [5] concerns TLR4. The series is described as follows: TLR4 expression in LPS-treated THP1 cells (anti-TLR4 antibodies, FACS). The format is cell-based. The following applies: 1 μg/ml LPS, AN446 20 or 40 μM, FIG. 7A. As to the method:
as §3

In a further series the test system is IL-6. Briefly: IL-6 in supernatant of LPS-treated THP1 cells (ELISA). The following applies: 1 μg/ml LPS, AN446 20 or 40 μM, FIG. 7B. The format is cell-based. As to the method: as §3

For the molecule `CCCC(CCC)C(=O)Nc1nc2c(ncn2COCCOC(=O)C(CCC)CCC)c(=O)[nH]1` [AN446, N-valproyl-9-(2-valproyloxy)ethoxymethyl-guanine], the “percentage of ROS positive U251 cells” value with U251 glioblastoma cells was “increased the percentage of ROS positive U251 glioblastoma cells significantly more than Dox”. Further, the “ROS production and mortality in Dox-treated H9C2 cells” value in the series on H9C2 cells (added to 200 nM Dox) is “attenuated ROS production and mortality”. In the series on H9C2 cells (single agent), the “ROS production in H9C2 cells” value was “did not induce ROS production”. For the same molecule, in the series on astrocytes (added to 200 nM Dox), the “ROS production and mortality in Dox-treated astrocytes” value is “attenuated ROS production and mortality”. Moreover, the “ROS production in astrocytes” value in the series on astrocytes (single agent) is “did not induce ROS production”. Moreover, the “VEGF expression in the heart” value in the series with VEGF was “elevated”. In the series with HO-1 (co-treatment with Dox), the “HO-1 expression in the heart” value was “increased the expression of this enzyme to a significantly higher level” and the “HO-1 mRNA in the heart, elevation of basal expression level” value came out at 3.89±0.35 fold. For the same molecule, the “HO-1 expression in the heart (decrease)” value in the series with HO-1 (single agent, FIGS. 4D, 4E) is “did not significantly change”. In the series on TNF-α, the “doxorubicin-induced rise in serum levels of TNF-α” value is reported as “prevented a doxorubicin-induced rise in serum levels of TNF-α”. Also, the “paclitaxel-induced increase in expression of TLR4” value in the series on TLR4 [1] (combination with paclitaxel) is given as “significantly attenuated”. The “expression of TLR4” value with TLR4 [1] (single agent) was “reduced expression of TLR4”. For the same molecule, the “expression of IL-10” value in the series with IL-10 is given as “doubled”. Besides, the “potency as HDAC inhibitor relative to AN7” value in [2] is 2-3 fold. Moreover, the “histone acetylation in U251 cancer cells” value in series [3] is on record as “increased histone acetylation considerably”. Besides, the “survival of mice when added to Dox treatment” value in series [4] (added to Dox 4 mg/kg ip once a week, day 25, FIG. 3A) worked out at 80%. For the same molecule, in series [4] (added to Dox 4 mg/kg, FIG. 3B), the “body weight loss when added to Dox treatment” value is given as “significant attenuation of body weight loss”. In addition, the “Ki-67 positive (proliferating) cells in tumors” value in [4] (in combination with Dox, FIG. 3F) is “reduced the proliferating cells to a level significantly lower than any of the single drug treatments”. Also, in [4] (in combination with Dox), the “tumor volume of vehicle-treated group relative to treated group” value is reported as 3 fold. Also, the “Ki-67 positive cells in tumors” value in series [4] (single agent vs vehicle, FIGS. 3E, 3F) is “considerably more Ki-67 positive cells were detected in tumors of the vehicle-treated mice”. Further, the “tumor volume of vehicle-treated group relative to treated group” value in [4] (single agent) came out at 2 fold. Also, the “survival of mice until end of experiment (day 25)” value in series [4] (single agent: AN446 25 mg/kg or AN7 50 mg/kg po thrice weekly, Dox 4 mg/kg ip once a week, FIG. 3A) is listed as 100%. The “LPS-induced expression of TLR4” value with TLR4 [5] was “suppressed”. In the series on IL-6, the “LPS-induced expression of IL-6” value is reported as “suppressed”.
